# From patent publication US9351987B2, “Compositions for treating heartworm infestation” (CEVA SANTE ANIMALE, priority 2010, dated 2016)
# Read-outs that look alike come from different tables or passages of the source.
# Experiments:
# [1] = Plasma ivermectin concentration after ivermectin implant in dogs; assay type: in vivo, dog
# Source text: The concentrations of ivermectin (ng/mL) in the plasma, collected in the jugular vein at day 0 to day 429, are presented in Table 2.
# The concentrations of ivermectin in the plasma, collected in the jugular vein, have been evaluated during 429 days for dogs A and […] (Table 2, Example 1) or just dosed until D365 for dogs C and D.
# Dirofilaria larvae [2] = details: cited from earlier work
# Dirofilaria larvae [3] = experiment: Effective ivermectin rate against Dirofilaria larvae; assay type: in vivo; details: established by the present inventors
# Procedure: Currently approved dosages of ivermectin are about 6 mcg/kg orally or 200 mcg/kg subcutaneously. […] Cunningham C P et al., (Am. J. Vet, Res., 2006, 67) brought evidence that this effective rate might be around 0.2 ng/mL of ivermectin in the plasma.
# Also, the formulations according to the present invention provide a long term protection, e.g., at least 6 months, 12 months, or 18 months up to 24 months against infections caused by parasites.
# [4] = estimated from reports from non recommended use of the drug; cited from earlier work
# [5] = 14-week oral study, cited from earlier work
# [6] = 36-day study, beagle dogs, cited from earlier work
smiles,measurement,setting,value
CC[C@H](C)[C@H]1O[C@]2(CC[C@@H]1C)C[C@@H]1C[C@@H](C/C=C(\C)[C@@H](O[C@H]3C[C@H](OC)[C@@H](O[C@H]4C[C@H](OC)[C@@H](O)[C@H](C)O4)[C@H](C)O3)[C@@H](C)/C=C/C=C3\CO[C@@H]4[C@H](O)C(C)=C[C@@H](C(=O)O1)[C@]34O)O2 [Ivermectin],Ivermectin concentration in plasma,"[1]; dog A (6% ivermectin implant), day 1",6.25 ng/mL
same,Ivermectin concentration in plasma,"[1]; dog A (6% ivermectin implant), day 2",5.29 ng/mL
same,Ivermectin concentration in plasma,"[1]; dog A (6% ivermectin implant), day 4",5.25 ng/mL
same,Ivermectin concentration in plasma,"[1]; dog A (6% ivermectin implant), day 10",2.56 ng/mL
same,Ivermectin concentration in plasma,"[1]; dog A (6% ivermectin implant), day 21",1.35 ng/mL
same,Ivermectin concentration in plasma,"[1]; dog A (6% ivermectin implant), day 30",0.91 ng/mL
same,Ivermectin concentration in plasma,"[1]; dog A (6% ivermectin implant), day 39",1.09 ng/mL
same,Ivermectin concentration in plasma,"[1]; dog A (6% ivermectin implant), day 60",0.76 ng/mL
same,Ivermectin concentration in plasma,"[1]; dog A (6% ivermectin implant), day 78",0.67 ng/mL
same,Ivermectin concentration in plasma,"[1]; dog A (6% ivermectin implant), day 99",0.26 ng/mL
same,Ivermectin concentration in plasma,"[1]; dog A (6% ivermectin implant), day 120",0.44 ng/mL
same,Ivermectin concentration in plasma,"[1]; dog A (6% ivermectin implant), day 141",0.28 ng/mL
same,Ivermectin concentration in plasma,"[1]; dog A (6% ivermectin implant), day 162",0.18 ng/mL
same,Ivermectin concentration in plasma,"[1]; dog A (6% ivermectin implant), day 183",0.13 ng/mL
same,Ivermectin concentration in plasma,"[1]; dog A (6% ivermectin implant), day 211",0.14 ng/mL
same,Ivermectin concentration in plasma,"[1]; dog A (6% ivermectin implant), day 239",0.10 ng/mL
same,Ivermectin concentration in plasma,"[1]; dog A (6% ivermectin implant), day 266",0.12 ng/mL
same,Ivermectin concentration in plasma,"[1]; dog A (6% ivermectin implant), day 295",0.07 ng/mL
same,Ivermectin concentration in plasma,"[1]; dog A (6% ivermectin implant), day 329",0.06 ng/mL
same,Ivermectin concentration in plasma,"[1]; dog A (6% ivermectin implant), day 365",0.14 ng/mL
same,Ivermectin concentration in plasma,"[1]; dog A (6% ivermectin implant), day 380",0.14 ng/mL
same,Ivermectin concentration in plasma,"[1]; dog A (6% ivermectin implant), day 395",0.17 ng/mL
same,Ivermectin concentration in plasma,"[1]; dog A (6% ivermectin implant), day 429",0.20 ng/mL
same,Ivermectin concentration in plasma,"[1]; dog B (6% ivermectin implant), day 1",3.50 ng/mL
same,Ivermectin concentration in plasma,"[1]; dog B (6% ivermectin implant), day 2",3.04 ng/mL
same,Ivermectin concentration in plasma,"[1]; dog B (6% ivermectin implant), day 4",2.62 ng/mL
same,Ivermectin concentration in plasma,"[1]; dog B (6% ivermectin implant), day 10",0.97 ng/mL
same,Ivermectin concentration in plasma,"[1]; dog B (6% ivermectin implant), day 21",1.92 ng/mL
same,Ivermectin concentration in plasma,"[1]; dog B (6% ivermectin implant), day 30",1.01 ng/mL
same,Ivermectin concentration in plasma,"[1]; dog B (6% ivermectin implant), day 39",1.02 ng/mL
same,Ivermectin concentration in plasma,"[1]; dog B (6% ivermectin implant), day 60",0.51 ng/mL
same,Ivermectin concentration in plasma,"[1]; dog B (6% ivermectin implant), day 78",0.29 ng/mL
same,Ivermectin concentration in plasma,"[1]; dog B (6% ivermectin implant), day 99",0.11 ng/mL
same,Ivermectin concentration in plasma,"[1]; dog B (6% ivermectin implant), day 120",0.30 ng/mL
same,Ivermectin concentration in plasma,"[1]; dog B (6% ivermectin implant), day 141",0.23 ng/mL
same,Ivermectin concentration in plasma,"[1]; dog B (6% ivermectin implant), day 162",0.10 ng/mL
same,Ivermectin concentration in plasma,"[1]; dog B (6% ivermectin implant), day 183",0.11 ng/mL
same,Ivermectin concentration in plasma,"[1]; dog B (6% ivermectin implant), day 211",0.24 ng/mL
same,Ivermectin concentration in plasma,"[1]; dog B (6% ivermectin implant), day 239",0.05 ng/mL
same,Ivermectin concentration in plasma,"[1]; dog B (6% ivermectin implant), day 266",0.10 ng/mL
same,Ivermectin concentration in plasma,"[1]; dog B (6% ivermectin implant), day 295",0.06 ng/mL
same,Ivermectin concentration in plasma,"[1]; dog B (6% ivermectin implant), day 365",0.06 ng/mL
same,Ivermectin concentration in plasma,"[1]; dog B (6% ivermectin implant), day 380",0.06 ng/mL
same,Ivermectin concentration in plasma,"[1]; dog B (6% ivermectin implant), day 395",0.08 ng/mL
same,Ivermectin concentration in plasma,"[1]; dog B (6% ivermectin implant), day 429",0.06 ng/mL
same,Ivermectin concentration in plasma,"[1]; dog C (4.5% ivermectin implant), day 1",6.93 ng/mL
same,Ivermectin concentration in plasma,"[1]; dog C (4.5% ivermectin implant), day 2",6.42 ng/mL
same,Ivermectin concentration in plasma,"[1]; dog C (4.5% ivermectin implant), day 4",4.77 ng/mL
same,Ivermectin concentration in plasma,"[1]; dog C (4.5% ivermectin implant), day 10",2.64 ng/mL
same,Ivermectin concentration in plasma,"[1]; dog C (4.5% ivermectin implant), day 21",2.14 ng/mL
same,Ivermectin concentration in plasma,"[1]; dog C (4.5% ivermectin implant), day 30",1.79 ng/mL
same,Ivermectin concentration in plasma,"[1]; dog C (4.5% ivermectin implant), day 39",1.74 ng/mL
same,Ivermectin concentration in plasma,"[1]; dog C (4.5% ivermectin implant), day 60",0.28 ng/mL
same,Ivermectin concentration in plasma,"[1]; dog C (4.5% ivermectin implant), day 78",0.17 ng/mL
same,Ivermectin concentration in plasma,"[1]; dog C (4.5% ivermectin implant), day 99",0.21 ng/mL
same,Ivermectin concentration in plasma,"[1]; dog C (4.5% ivermectin implant), day 120",0.27 ng/mL
same,Ivermectin concentration in plasma,"[1]; dog C (4.5% ivermectin implant), day 141",0.26 ng/mL
same,Ivermectin concentration in plasma,"[1]; dog C (4.5% ivermectin implant), day 162",0.17 ng/mL
same,Ivermectin concentration in plasma,"[1]; dog C (4.5% ivermectin implant), day 183",0.17 ng/mL
same,Ivermectin concentration in plasma,"[1]; dog C (4.5% ivermectin implant), day 211",0.15 ng/mL
same,Ivermectin concentration in plasma,"[1]; dog C (4.5% ivermectin implant), day 239",0.11 ng/mL
same,Ivermectin concentration in plasma,"[1]; dog C (4.5% ivermectin implant), day 266",0.13 ng/mL
same,Ivermectin concentration in plasma,"[1]; dog C (4.5% ivermectin implant), day 295",0.13 ng/mL
same,Ivermectin concentration in plasma,"[1]; dog C (4.5% ivermectin implant), day 329",0.06 ng/mL
same,Ivermectin concentration in plasma,"[1]; dog C (4.5% ivermectin implant), day 365",0.16 ng/mL
same,Ivermectin concentration in plasma,"[1]; dog D (3% ivermectin implant), day 1",7.63 ng/mL
same,Ivermectin concentration in plasma,"[1]; dog D (3% ivermectin implant), day 2",6.95 ng/mL
same,Ivermectin concentration in plasma,"[1]; dog D (3% ivermectin implant), day 4",4.35 ng/mL
same,Ivermectin concentration in plasma,"[1]; dog D (3% ivermectin implant), day 10",3.82 ng/mL
same,Ivermectin concentration in plasma,"[1]; dog D (3% ivermectin implant), day 21",1.23 ng/mL
same,Ivermectin concentration in plasma,"[1]; dog D (3% ivermectin implant), day 30",1.54 ng/mL
same,Ivermectin concentration in plasma,"[1]; dog D (3% ivermectin implant), day 39",1.15 ng/mL
same,Ivermectin concentration in plasma,"[1]; dog D (3% ivermectin implant), day 60",0.84 ng/mL
same,Ivermectin concentration in plasma,"[1]; dog D (3% ivermectin implant), day 78",0.52 ng/mL
same,Ivermectin concentration in plasma,"[1]; dog D (3% ivermectin implant), day 99",0.69 ng/mL
same,Ivermectin concentration in plasma,"[1]; dog D (3% ivermectin implant), day 120",0.87 ng/mL
same,Ivermectin concentration in plasma,"[1]; dog D (3% ivermectin implant), day 141",0.65 ng/mL
same,Ivermectin concentration in plasma,"[1]; dog D (3% ivermectin implant), day 162",0.45 ng/mL
same,Ivermectin concentration in plasma,"[1]; dog D (3% ivermectin implant), day 183",0.51 ng/mL
same,Ivermectin concentration in plasma,"[1]; dog D (3% ivermectin implant), day 211",0.29 ng/mL
same,Ivermectin concentration in plasma,"[1]; dog D (3% ivermectin implant), day 239",0.18 ng/mL
same,Ivermectin concentration in plasma,"[1]; dog D (3% ivermectin implant), day 266",0.22 ng/mL
same,Ivermectin concentration in plasma,"[1]; dog D (3% ivermectin implant), day 295",0.13 ng/mL
same,Ivermectin concentration in plasma,"[1]; dog D (3% ivermectin implant), day 329",0.13 ng/mL
same,Ivermectin concentration in plasma,"[1]; dog D (3% ivermectin implant), day 365",0.09 ng/mL
same,Effective rate of ivermectin in the plasma,"Dirofilaria larvae [2]; Cunningham C P et al., Am. J. Vet. Res., 2006, 67",around 0.2 ng/mL
same,Effect on Dirofilaria larvae,"Dirofilaria larvae [2]; ivermectin administered per se at 6 mcg/kg, generally reported",able to kill efficiency one month aged Dirofilaria larvae
same,Effective rate of ivermectin in the plasma,Dirofilaria larvae [3],around 0.1 ng/mL
same,Share of collie dogs highly sensitive to ivermectin,[4],Approximately 30%
same,No Observable Effect Levels (NOEL),[5]; beagle dogs (4/sex/group),0.5 mg/kg bw
same,"Signs developed (four dogs, killed prior to the end of the study)","[5]; beagle dogs, 2.0 mg/kg bw group","tremors, ataxia, anorexia and dehydration"
same,Signs observed,"[5]; beagle dogs, 1.0 and 2.0 mg/kg bw",mydriasis and slight weight loss
same,Time to steady-state of H2B1a in plasma,[6]; oral 0.5 and 2.0 mg/kg bw,after about three weeks
same,Average increase in plasma levels on a four-fold increase in the dose,[6]; oral 0.5 vs 2.0 mg/kg bw,eight-fold
